From paper PMC4192597, “Antimicrobials, Stress and Mutagenesis” (PLoS Pathogens, 2014)
In brackets after ≈: the same amount, converted by molar mass. Where two headings read alike, the source gives them in different places. Ends that are not written are not given here.

What was measured:
E. coli MG1655 [1] = assay: Minimal inhibitory concentration (MIC), micro-dilution; format: cell-based, Escherichia coli; settings: inoculum 2×10^8 cfu/ml, 24 h, liquid MH medium, 37°C
Protocol: E. coli K-12 MG1655 was used for all experiments, grown in liquid Mueller-Hilton (MH) agar or agarose, unless otherwise indicated. All experiments were carried out at 37°C.
MICs were determined according to CLSI recommendations by a micro-dilution method with the exception that the inoculum size that was adjusted to 2×10^8 cfu/ml from a regrowth of overnight cultures to be consistent with the mutagenesis experiments. […] Polypropylene non-binding plates (Th. Geyer, Germany) were used for all experiments.

E. coli MG1655 [2] = assay: microbe, parasite or virus in culture; format: cell-based, Escherichia coli; settings: 4 hours, 50% reduction of CFUs vs control, Mueller Hinton Broth, 37°C, five replicates, repeated twice
Protocol: The MIC50s for all antimicrobials were determined by inoculating strains grown to mid-log phase into the wells of a 96-microwell plate. Approximately 10^2 cells from overnight cultures were inoculated into tubes containing 10 ml of Mueller Hinton Broth medium, and the tubes were incubated at 37°C with strong shaking until the mid-log phase of growth (approximately 10^8 cells/ml). […] The plates were incubated at 37°C for 4 h with continuous shaking in a plate reader (Synergy 2, BioTeK). After four hours, aliquots from wells with OD^600 readings ranging from 10 to 90% values in comparison with the control, were serially diluted in sterile 0.9% NaCl, and incubated during 1 hour to allow the resolution of filaments as consequence of SOS activation, if any. Bacterial suspensions were plated in Mueller Hinton Broth agar plates to estimate the viability as colony forming units (CFUs). Five replicates per concentration were prepared and the experiments were repeated twice.

E. coli MG1655 [3] = assay: Killing by AMPs under thiourea ROS scavenger; format: cell-based, Escherichia coli; settings: thiourea 100 mM (Figure S3)
Protocol: SOS and rpoS mediated mutagenesis are well supported by empirical work, and it was recently proposed that antibiotics promote ROS formation and kill bacterial by lethal induction of hydroxyl-mediated DNA damage. Here we explored this new and debated proposition also for AMPs. We assessed AMP killing curves in E. coli MG1655 in the presence of the ROS scavenger thiourea (100 mM) and used Kanamycin as positive control.
Kanamycin was used a positive control. The procedure was the same as described in this work elsewhere for MIC50 (Fig. S3).

[4] = tested on: E. coli stress response genes (strain MG1655); assay: Relative gene expression of stress response genes by quantitative real-time PCR; format: cell-based, Escherichia coli; settings: for Expression, cpxA (Envelope stress) / Expression, cpxR (Envelope stress) / Expression, dinB (SOS response) / Expression, lexA (SOS response) / Expression, marR (Independent multiple antibiotic resistance) / Expression, oxyR (Oxidative stress) / Expression, phoP (Envelope stress) / Expression, phoQ (Envelope stress) / Expression, recA (SOS response) / Expression, rpoE (Envelope stress) / Expression, rpoS (Sigma S response) / Expression, umuC (SOS response): normalized to arcA, mdoG, tus, Pexiganan 16, Melittin 16, Kanamycin 16, Ciprofloxacin 0.5, Lysozyme 128, Ampicillin 32 μg/ml, three biological replicates; as to Result, cpxR: key: NDE: non-differentially expressed, p-value ≥ 0,05; UP: upregulated, p-value ≤ 0,05; DOWN: downregulated, p-value ≤ 0,05; as to Result, oxyR: key: NDE: non-differentially expressed, p-value ≥ 0,05; UP: upregulated, p-value ≤ 0,05; DOWN: downregulated, p-value ≤ 0,05; as to Result, rpoE: key: NDE: non-differentially expressed, p-value ≥ 0,05; UP: upregulated, p-value ≤ 0,05; DOWN: downregulated, p-value ≤ 0,05
Protocol: Preparation of each of the six treatments and the control samples was carried out by two operators on three consecutive days, thereby comprising three biological replicates for each of the six experimental and one control groups. To obtain the starting material for the experiment, a fresh bacterial culture was grown from a glycerol stock on Mueller-Hinton (MH) agar plates at 37°C for 18–24 hours. One well-isolated colony per biological replicate was used to inoculate 2 ml of liquid MH (Sigma) in a 10 ml sterile polypropylene tube and incubated at 37°C for 16 hours with mild shaking. The overnight (ON) culture was then diluted 1∶100 in MH, subdivided into seven 10 ml aliquots and incubated in 50 ml-Falcon tubes at 37°C for 2.5 hours at 220 rpm. When the OD600 of bacterial cultures reached 0.5–0.7, respective antibiotics and AMPs were added to a concentration to match with those used in the mutagenesis experiments. These bacterial cultures were incubated for 20 minutes at 37°C with gentle shaking. Two ml of bacterial cultures from each treatment and the control were collected, immediately centrifuged at 10000 g for 2 minutes and the supernatant was removed to stop the treatment. The bacterial pellet was then resuspended in 1 ml MH, followed by an addition of 1 ml of RNAprotect Bacteria Reagent (Qiagen), 5 minutes incubation and centrifugation at 10000 g for 2 minutes at room temperature. The supernatant was discarded and the bacterial pellet was immediately frozen and stored at −80°C until RNA extraction.
Total RNA was isolated using RNeasy kit (Qiagen) according to the manufacturer's instructions and eluted in 50 µl of RNase-free water. The nucleic acid yield and purity were determined by measuring the optical density at A260/280 using a Nanodrop spectrophotometer (Thermo Scientific). RNA samples were treated with TURBO DNase (Life Technologies). Briefly, ten µg of RNA were used in a total volume of 500 µl containing 20 units of TURBO DNase, incubated for 30 minutes at 37°C, immediately followed by RNeasy (Qiagen) cleanup and elution in 30 µl of RNase-free water. Following DNase treatment, RNA integrity was assessed using Agilent RNA 6000 Nano kit and 2100 Bioanalyzer instrument (both Agilent Technologies).
High-Capacity cDNA Reverse Transcription Kit with RNase Inhibitor (Applied Biosystems) was used for cDNA synthesis. Initially, to ensure linear conversion of the transcripts, the dynamic range of reverse transcription reaction was tested by performing a standard curve with cDNA, synthesised using various input amounts of pooled RNA. Total RNA (250 ng per reaction) and random primers were used for cDNA synthesis. To obtain sufficient amount of cDNA, several batches of 20 µl RT reactions were pooled, diluted 50-fold with RNase-free water and stored in single-use aliquots at −80°C until further use. All 21 samples were tested for presence of contaminating genomic DNA by running the mdoG assay with cDNA and the respective no reverse transcription (−RT) controls.
Escherichia coli strain K-12 substrain MG1655 complete genome (accession U00096) sequence was downloaded from NCBI database (www.ncbi.nlm.nih.gov) and used for primer design. Target sequence accession number, location of the amplicon, amplicon length and primer sequences for each assay can be found in table S2. Primers were designed using Primer Express software (Applied Biosystems) and optimized for annealing temperature of 60°C. Each primer pair and amplicon were checked for secondary structure formation using Oligo Tool (Integrated DNA technologies, http://eu.idtdna.com/analyzer/Applications/OligoAnalyzer/).

[5] = tested on: E. coli stress response genes; settings: kanamycin 5 μg/ml, ref Kohanski,2007, cited from earlier work
E. coli MG1655 [6] = assay: Luria-Delbrück fluctuation assay, mutation rate (rifampicin resistance); format: cell-based, Escherichia coli; settings: concentrations ranging from 0.5 to 4 µg/ml (Figure S1)
Protocol: We first investigated the mutation rates of E. coli using a Luria-Delbrück fluctuation test. We used the Escherichia coli strain MG1655 and the concentration of all antimicrobials was adjusted to limit bacterial growth to 50% in four hours of treatment.
The duration of treatment was set to 4 hours for all antimicrobials, and the concentrations were adjusted to obtain around 50% of inhibition of grow in comparison to the a non-treated control. Three ml of exponentially growing culture of E. coli MG1655 (∼2×10^8 cells/ml) were centrifuged at 4000 g for 10 minutes and re-suspended in the same volume of MH with different concentrations of antimicrobials at 37°C with shaking (200 rpm). After incubation, the cultures were centrifuged for 10 min at 4000 g. The pellet was re-suspended, washed twice with MH and re-suspended in 3 ml of fresh medium and incubated overnight (16 h) at 37°C with shaking. This step is necessary to resolve the filaments that some antimicrobials induce due to their toxic action and allow recovery of cells under stress. Cultures were diluted and plated to determine the number of colony forming units in MH agar plates. The number of mutants was estimated by the number of colonies growing on rifampicin (100 µg/ml). […]
We also assessed if different AMP concentrations (Fig. S1) or different inoculum sizes (10^2, 10^4, 10^6, 10^8 cfu/ml) influenced mutation rates (Fig. S2).

[7] = qPCR, 20 minutes exposure vs non-treated bacteria, REST 2009 randomisation test
[8] = qPCR, 20 minutes exposure vs non-treated bacteria

Row | Molecule | MIC (E. coli MG1655 [1]) [µg/mL] | MIC50 (E. coli MG1655 [2]) [µg/mL] | Result, cpxA [4, 7] | Result, cpxR [4, 7] | Result, dinB [4, 7] | Result, lexA [4, 7] | Result, marR [4, 7] | Result, oxyR [4, 7] | Expression, cpxA (Envelope stress) [4, 8] | Expression, cpxR (Envelope stress) [4, 8] | Expression, dinB (SOS response) [4, 8] | Expression, lexA (SOS response) [4, 8] | Expression, marR (Independent multiple antibiotic resistance) [4, 8] | Expression, oxyR (Oxidative stress) [4, 8] | Expression, phoP (Envelope stress) [4, 8] | Expression, phoQ (Envelope stress) [4, 8] | Expression, recA (SOS response) [4, 8] | Expression, rpoE (Envelope stress) [4, 8] | Expression, rpoS (Sigma S response) [4, 8] | Expression, umuC (SOS response) [4, 8] | further results
1 | NC[C@H]1O[C@H](O[C@H]2[C@H](O)[C@@H](O[C@H]3O[C@H](CO)[C@@H](O)[C@H](N)[C@H]3O)[C@H](N)C[C@@H]2N)[C@H](O)[C@@H](O)[C@@H]1O [Kanamycin] | 2 (≈ 4.13 µM) | 1.6 | NDE | NDE | NDE | NDE | NDE | NDE | 1.069 | 0.812 | 1.083 | 1.302 | 1.073 | 1.333 | 0.94 | 0.769 | 1.331 | 1.236 | 0.967 | 0.974 | killing / sensitivity in the presence of the ROS scavenger thiourea (E. coli MG1655 [3]): reduced sensitivity; Result, phoP [4, 7]: NDE; Result, phoQ [4, 7]: NDE; Result, recA [4, 7]: NDE; Result, rpoE [4, 7]: NDE; Result, rpoS [4, 7]: NDE; Result, umuC [4, 7]: NDE; expression, rpoE (microarray database) ([5]; 30 min): 2.118; expression, marR (microarray database) ([5]; 60 min): 8.767; expression, phoP (microarray database) ([5]; 60 min): 2.411; expression, lexA (microarray database) ([5]; 120 min): 3.48; expression, oxyR (microarray database) ([5]; 120 min): 3.362
2 | GIGKFLKKAKKFGKAFVKILKK-NH2 (C-terminus assumed) [Pexiganan] | 2 |  |  |  |  |  |  |  | 0.893 | 0.846 | 1.114 | 1.049 | 4.048 | 1.187 | 3.074 | 2.447 | 0.733 | 1.108 | 1.353 | 0.925 | mutation rates over a gradient of sub-inhibitory to inhibitory concentrations (E. coli MG1655 [6]): did not change; Result, cpxA [4]: NDE; Result, cpxR [4]: NDE; Result, dinB [4]: NDE; Result, lexA [4]: NDE; Result, marR [4]: UP (4.05-fold); Result, oxyR [4]: NDE; Result, phoP [4]: UP (3.07-fold); Result, phoQ [4]: UP (2.45-fold); Result, recA [4]: NDE; Result, rpoE [4]: NDE; Result, rpoS [4]: NDE; Result, umuC [4]: NDE; overexpression of three envelope stress genes (marR, phoP and phoQ) ([4]; qPCR, 20 minutes exposure): overexpression
3 | CC[C@H](C)[C@H](NC(=O)CN)C(=O)NCC(=O)N[C@@H](C)C(=O)N[C@H](C(=O)N[C@@H](CC(C)C)C(=O)N[C@@H](CCCCN)C(=O)N[C@H](C(=O)N[C@@H](CC(C)C)C(=O)N[C@H](C(=O)N[C@H](C(=O)NCC(=O)N[C@@H](CC(C)C)C(=O)N1CCC[C@H]1C(=O)N[C@@H](C)C(=O)N[C@@H](CC(C)C)C(=O)N[C@H](C(=O)N[C@@H](CO)C(=O)N[C@@H](Cc1c[nH]c2ccccc12)C(=O)N[C@H](C(=O)N[C@@H](CCCCN)C(=O)N[C@@H](CCCNC(=N)N)C(=O)N[C@@H](CCCCN)C(=O)N[C@@H](CCCNC(=N)N)C(=O)N[C@@H](CCC(N)=O)C(=O)N[C@@H](CCC(N)=O)C(N)=O)[C@@H](C)CC)[C@@H](C)CC)[C@@H](C)O)[C@@H](C)O)C(C)C)C(C)C [Melittin] |  | 1.6 | NDE | NDE | NDE | NDE | NDE | NDE | 1.295 | 0.953 | 0.991 | 1.1 | 0.743 | 1.337 | 0.857 | 0.87 | 1.12 | 1.197 | 0.972 | 0.926 | mutation rates over a gradient of sub-inhibitory to inhibitory concentrations (E. coli MG1655 [6]): did not change; Result, phoP [4, 7]: NDE; Result, phoQ [4, 7]: NDE; Result, recA [4, 7]: NDE; Result, rpoE [4, 7]: NDE; Result, rpoS [4, 7]: NDE; Result, umuC [4, 7]: NDE
